Usually EC50 stands for the concentration that produces a half-maximal response.

14 compounds from US7745636B2, “Hepatitis C virus inhibitors” (Bristol-Myers Squibb Company, priority 2006, dated 2010) can be followed below.

The assay relates to HCV 1b-377-neo replicon cells. The assay is described as follows: HCV Replicon assay, HCV 1b-377-neo replicon cells. Type of assay: cell-based, HCV 1b genotype. To be noted: Hepatitis C virus, Table 2, read-out: Range (EC50 against HCV 1b). (In general: In antiviral work, replicon cells carry a viral genome segment that copies itself.)
For the compound `COC(=O)N[C@@H](C(=O)N[C@@H](C)c1ncc(-c2ccc(-c3ccc(-c4cnc([C@H](C)NC(=O)[C@H](NC(=O)OC)c5ccccc5)[nH]4)cn3)cc2)[nH]1)c1ccccc1` [Example 152j-23, methyl ((1R)-2-(((1S)-1-(5-(6-(4-(2-((1S)-1-(((2R)-2-((methoxycarbonyl)amino)-2-phenylace-tyl)amino)eth-yl)-1H-imidazol-5-yl)phenyl)-3-pyridinyl)-1H-imidazol-2-yl)ethyl)amino)-2-oxo-1-phenylethyl)carbamate], the 50% effective concentration (EC50) lay in the range of 0.001 to 0.999 nM.

Take `C[C@H](NC(=O)[C@@H](c1ccccc1)N(C)C)c1ncc(-c2ccc(-c3ccc(-c4cnc([C@H](C)NC(=O)[C@@H](c5ccccc5)N(C)C)[nH]4)cn3)cc2)[nH]1` [Example 152j-24, (2R)-2-(dimethylamino)-N-((1S)-1-(5-(6-(4-(2-((1S)-1-(((2R)-2-(dimethylamino)-2-phenylace-tyl)amino)eth-yl)-1H-imidazol-5-yl)phenyl)-3-pyridinyl)-1H-imidazol-2-yl)ethyl)-2-phenylacetamide]: the EC50 fell in the range of 0.001 to 0.999 nM.

For the compound `COC(=O)N[C@@H](C(=O)N[C@@H](C)c1ncc(-c2ccc(-c3cnc(-c4cnc([C@@H]5CCCN5C(=O)[C@H](NC(=O)OC)c5ccccc5)[nH]4)cn3)cc2)[nH]1)c1ccccc1` [Example 152j-28, methyl ((1R)-2-((2S)-2-(5-(5-(4-(2-((1S)-1-(((2R)-2-((methoxycarbonyl)amino)-2-phenylace-tyl)amino)eth-yl)-1H-imidazol-5-yl)phenyl)-2-pyrazinyl)-1H-imidazol-2-yl)-1-pyrrolidinyl)-2-oxo-1-phenylethyl)carbamate], the EC50 was 0.001 to 0.999 nM.

For `COC(=O)N[C@@H](C(=O)N(C)[C@@H](C)c1ncc(-c2ccc(-c3ncc(-c4cnc([C@@H]5CCCN5C(=O)[C@@H](c5ccccc5)N5CCCCC5)[nH]4)cn3)cc2)[nH]1)c1ccccc1` [Example 152l-1, methyl ((1R)-2-(methyl((1S)-1-(4-(4-(5-(2-((2S)-1-((2R)-2-phenyl-2-(1-piperidinyl)acetyl)-2-pyrrolidinyl)-1H-imidazol-5-yl)-2-pyrimidinyl)phenyl)-1H-imidazol-2-yl)ethyl)amino)-2-oxo-1-phenylethyl)carbamate], the EC50 lay within 0.001 to 0.999 nM.

Take `COC(=O)N[C@@H](C(=O)N[C@@H](C)c1ncc(-c2ccc(-c3ncc(-c4cnc([C@@H]5CCCN5C(=O)[C@@H](c5ccccc5)N5CCCCC5)[nH]4)cn3)cc2)[nH]1)c1ccccc1` [Example 152l-2, methyl ((1R)-2-oxo-1-phenyl-2-(((1S)-1-(4-(4-(5-(2-((2S)-1-((2R)-2-phenyl-2-(1-piperidinyl)acetyl)-2-pyrrolidinyl)-1H-imidazol-5-yl)-2-pyrimidinyl)phenyl)-1H-imidazol-2-yl)ethyl)amino)ethyl) carbamate]: the EC50 was 0.001 to 0.999 nM.

`COC(=O)N[C@@H](C(=O)N1CCC[C@H]1c1ncc(-c2ccc(-c3ncc(-c4cnc([C@@H]5CCCN5C(=O)[C@@H](c5ccccc5)N5CCCCC5)[nH]4)cn3)cc2)[nH]1)c1ccccc1` [Example 152l-3, methyl ((1R)-2-oxo-1-phenyl-2-((2S)-2-(4-(4-(5-(2-((2S)-1-((2R)-2-phenyl-2-(1-piperidinyl)acetyl)-2-pyrrolidinyl)-1H-imidazol-5-yl)-2-pyrimidinyl)phenyl)-1H-imidazol-2-yl)-1-pyrrolidinyl)ethyl) carbamate]: the EC50 was 0.001 to 0.999 nM.

Take `CN(C)[C@@H](C(=O)N1CCC[C@H]1c1ncc(-c2ccc(-c3ccc(-c4cnc([C@@H]5CCCN5C(=O)[C@@H](c5ccccc5)N(C)C)[nH]4)nn3)nn2)[nH]1)c1ccccc1` [Example 153c-1, (1R,1′R)-2,2′-(3,3′-bipyridazine-6,6′-diylbis(1H-imidazole-5,2-diyl(2S)-2,1-pyrrolidinediyl))bis(N, N-dimethyl-2-oxo-1-phenylethanamine)]: the concentration giving a half-maximal response (EC50) was in the range of 1 to 99 nM.

As to `COC(=O)N[C@@H](C(=O)N1CCC[C@H]1c1ncc(-c2ccc(-c3ccc(-c4cnc([C@@H]5CCCN5C(=O)[C@H](NC(=O)OC)c5ccccc5)[nH]4)nn3)nn2)[nH]1)c1ccccc1` [Example 153c-2, dimethyl (3,3′-bipyridazine-6,6′-diylbis(1H-imidazole-5,2-diyl(2S)-2,1-pyrrolidinediyl((1R)-2-oxo-1-phenyl-2,1-ethanediyl))) biscarbamate], the EC50 was 1 to 99 nM.

As for `CN(C)[C@@H](C(=O)N1CCC[C@H]1c1ncc(-c2cnc(-c3ncc(-c4cnc([C@@H]5CCCN5C(=O)[C@@H](c5ccccc5)N(C)C)[nH]4)cn3)nc2)[nH]1)c1ccccc1` [Example 153c-3, (1R,1′R)-2,2′-(2,2′-bipyrimidine-5,5′-diylbis(1H-imidazole-5,2-diyl(2S)-2,1-pyrrolidinediyl))bis(N, N-dimethyl-2-oxo-1-phenylethanamine)], the EC50 lay within 1000 to 10000 nM.

For `COC(=O)N[C@@H](C(=O)N1CCC[C@H]1c1ncc(-c2cnc(-c3ncc(-c4cnc([C@@H]5CCCN5C(=O)[C@H](NC(=O)OC)c5ccccc5)[nH]4)cn3)nc2)[nH]1)c1ccccc1` [Example 153c-4, dimethyl (2,2′-bipyrimidine-5,5′-diylbis(1H-imidazole-5,2-diyl(2S)-2,1-pyrrolidinediyl((1R)-2-oxo-1-phenyl-2,1-ethanediyl))) biscarbamate], the 50% effective concentration (EC50) was in the range of 1000 to 10000 nM.

As to `CN(C)[C@@H](C(=O)N1CCC[C@H]1c1ncc(-c2cnc(-c3cnc(-c4cnc([C@@H]5CCCN5C(=O)[C@@H](c5ccccc5)N(C)C)[nH]4)cn3)cn2)[nH]1)c1ccccc1` [Example 153c-5, (1R,1′R)-2,2′-(2,2′-bipyrazine-5,5′-diylbis(1H-imidazole-5,2-diyl(2S)-2,1-pyrrolidinediyl))bis(N, N-dimethyl-2-oxo-1-phenylethanamine)], the EC50 was 1 to 99 nM.

In the case of `COC(=O)N[C@@H](C(=O)N1CCC[C@H]1c1ncc(-c2cnc(-c3cnc(-c4cnc([C@@H]5CCCN5C(=O)[C@H](NC(=O)OC)c5ccccc5)[nH]4)cn3)cn2)[nH]1)c1ccccc1` [Example 153c-6, dimethyl (2,2′-bipyrazine-5,5′-diylbis(1H-imidazole-5,2-diyl(2S)-2,1-pyrrolidinediyl((1R)-2-oxo-1-phenyl-2,1-ethanediyl))) biscarbamate], the EC50 was in the range of 1 to 99 nM.

`COC(=O)N[C@@H](C(=O)N[C@@H](C)c1ncc(-c2ccc(-c3ccc(-c4cnc([C@H](C)NC(=O)[C@H](NC(=O)OC)c5ccccc5)[nH]4)cn3)nc2)[nH]1)c1ccccc1` [Example 153c-7, dimethyl (2,2′-bipyridine-5,5′-diylbis(1H-imidazole-5,2-diyl(1S)-1,1-ethanediylimino((1R)-2-oxo-1-phenyl-2,1-ethanediyl))) biscarbamate]: the half-maximal effective concentration (EC50) lay within 1 to 99 nM.

On to `COC(=O)N[C@@H](C)C(=O)N1CCC[C@H]1c1nc(-c2cnc(-c3ccc(-c4cnc([C@@H]5CCCN5C(=O)[C@H](C)NC(=O)OC)[nH]4)c(F)c3)nc2)c[nH]1` [Example D67, methyl ((1S)-2-((2S)-2-(5-(2-fluoro-4-(5-(2-((2S)-1-(N-(methoxycarbonyl)-L-alanyl)-2-pyrrolidinyl)-1H-imidazol-5-yl)-2-pyrimidinyl)phenyl)-1H-imidazol-2-yl)-1-pyrrolidinyl)-1-methyl-2-oxoethyl)carbamate], for which the half-maximal effective concentration (EC50) was 0.001 to 0.999 nM.
